From US4048167A, “N,N-disubstituted derivatives of 3-carboxamide or 3-thiocarboxamide-7-(3-chloro-2-propenyl)-1,3,5,7-tetraazabicyclo(3.3.1) nonane and preparation II” (The Dow Chemical Company, priority 1976, dated 1977)
Converted amounts (≈) assume the structure as drawn.

Experiments:
Format in all cases: cell-based
[1] = test system: E. coli; test: agar Petri dish dilution test, E. coli; conditions: Escherichia coli
[2] = test system: Pseudomas Species Str. 10; test: agar Petri dish dilution test, Pseudomas Species Str. 10; conditions: read-out: MIC, Ps
[3] = test system: B. subtilis; test: agar Petri dish dilution test, B. subtilis; conditions: Bacillus subtilis
[4] = test system: S. aureus; test: agar Petri dish dilution test, S. aureus; conditions: Staphylococcus aureus
[5] = test system: mentagrophytes; test: agar Petri dish dilution test, mentagrophytes
[6] = test system: M. phlei; test: agar Petri dish dilution test, M. phlei; conditions: Mycolicibacterium phlei
[7] = test system: A. aerogenes; test: agar Petri dish dilution test, A. aerogenes; conditions: Klebsiella aerogenes

| Structure (SMILES) | MIC [1] [µg/mL] | MIC [2] [µg/mL] | MIC [3] [µg/mL] | MIC [4] [µg/mL] | MIC [5] [µg/mL] | MIC [6] [µg/mL] | MIC [7] [µg/mL] |
| --- | --- | --- | --- | --- | --- | --- | --- |
| CN(C(=O)N1CN2CN(C/C=C\Cl)CN(C2)C1)c1ccccc1 [Example 2 c.] | 500 (≈ 1490 µM) | 500 (≈ 1490 µM) | 500 (≈ 1490 µM) | 500 (≈ 1490 µM) | 100 (≈ 298 µM) | 500 (≈ 1490 µM) | 500 (≈ 1490 µM) |
| CN(C)C(=S)N1CN2CN(C/C=C\Cl)CN(C2)C1 [Example 2 d.] | 500 (≈ 1730 µM) | 500 (≈ 1730 µM) | 100 (≈ 345 µM) | 500 (≈ 1730 µM) | 100 (≈ 345 µM) | 500 (≈ 1730 µM) | 500 (≈ 1730 µM) |
| CCN(CC)C(=O)N1CN2CN(C/C=C\Cl)CN(C2)C1 [Example 2 a.] | 100 (≈ 331 µM) | – | 100 (≈ 331 µM) | 500 (≈ 1660 µM) | 100 (≈ 331 µM) | 500 (≈ 1660 µM) | 100 (≈ 331 µM) |
| CN(C)C(=O)N1CN2CN(C/C=C\Cl)CN(C2)C1 [Example 1, N,N-Dimethyl-3-Carboxamide-7-cis-(3-Chloro-2-Propenyl)-1,3,5,7-Tetraazabicyclo(3.3.1)Nonane] | 500 (≈ 1830 µM) | 500 (≈ 1830 µM) | 100 (≈ 365 µM) | 500 (≈ 1830 µM) | 100 (≈ 365 µM) | 500 (≈ 1830 µM) | 100 (≈ 365 µM) |
| O=C(N1CN2CN(C/C=C\Cl)CN(C2)C1)N(c1ccccc1)c1ccccc1 [Example 2 b.] | 500 (≈ 1260 µM) | 500 (≈ 1260 µM) | 500 (≈ 1260 µM) | 500 (≈ 1260 µM) | 100 (≈ 251 µM) | 500 (≈ 1260 µM) | 500 (≈ 1260 µM) |
